From a melting point compilation (Tetko et al.; mined from patent text by program, amines drawn as free bases though some values may be those of a salt)

Structure (SMILES)	melting point
CC(C)Oc1cccc(NC(=O)OCc2c(-c3ccccc3)c3cc(Cl)ccc3c(=O)n2C)c1	205 to 207 °C
COC(=O)CCC(C(=O)C=Cc1ccc(O)c(OC(F)(F)F)c1)C(=O)C=Cc1ccc(O)c(OC(F)(F)F)c1 (centres undefined)	142 to 143 °C
O=C(Nc1ccccc1-c1ccccc1)OCCCC(=O)c1ccccc1	87 to 89 °C
Cc1ccc(C(=O)NCCN(C)C)cc1-n1c(C)cc(OCc2ccc(F)cc2CNC(=O)Nc2cc(C(C)(C)C)nn2-c2ccc(Cl)c(O)c2)c(Cl)c1=O	177 to 178 °C
Cc1coc2c(c1=O)N(C)S(=O)(=O)c1ccccc1-2	214 to 216 °C
CN(C(=O)Oc1ccc(Cl)c(C(C)(C)C)c1)c1cccc(Cl)c1	65 to 67 °C
CN1c2ccccc2C(c2ccccc2F)=Nc2cccnc21	140 to 142 °C
CS(=O)(=O)c1cc(C(N)Nc2ccccc2C(=O)Nc2cccc(C(F)(F)F)c2)ccn1 (centres undefined)	214 °C
CCOC(=O)[C@H](Cc1cccc(Oc2ccc(O)cc2)c1)NC(=O)C(F)(F)F	109 to 111 °C
O=C(O)CCNC(=O)C(=Cc1cccc2ccccc12)CS	133 °C
CC(C)Cc1[nH]c(=O)[nH]c1-c1cc(C(C)(C)C)c(O)c(C(C)(C)C)c1	286 to 289 °C
CSc1[nH]c2cccc3c2c1CC1C3C=C(C)CN1C (centres undefined)	148 to 150 °C
O=C(Oc1cccc(OC(=O)c2cc(O)c(O)c(O)c2)c1)c1cc(O)c(O)c(O)c1	194 to 195 °C
CCCCCCN1CC[C@H](NC(=O)c2cc(Cl)c(N)c3c2OCC3)[C@H](O)C1 (relative stereo)	130 °C
CC1(C)CCC(C)(C)c2cc(C(=O)COc3ccc(C=O)c(O)c3)ccc21	111 to 112 °C
S=C1N=c2cc(Cl)c(Cl)cc2=N1	328 to 330 °C
CC(C)(C)NNC(=O)OC(C)(C)C	69 to 71 °C
COC(=O)c1coc(-c2ccc(NS(=O)(=O)c3sc4ccc(F)cc4c3C)c(S(C)(=O)=O)c2)n1	290 to 292 °C
CC1=C(C)C(N)(Cc2ccccc2)C(C)C2=C1OCC2c1ccc(C)cc1 (centres undefined)	99 to 100 °C
CC1(O)C=CC2C3CCC4=CC(=O)CCC4C3C(c3ccc(-c4ccoc4)cc3)CC21C (centres undefined)	179 °C
CN(C)CCOc1nccc(-c2c(-c3ccc(F)cc3)ncn2C2CCC(=O)CC2)n1	84 to 86 °C
CCCCCS(=O)(=O)NC(=O)CCc1cc(C(C)C)nn1Cc1ccc(Cl)cc1Cl	115 to 117 °C
CC(Nc1nc(Cl)nc2c1cnn2-c1ccccc1)C(O)c1ccccc1 (centres undefined)	164 to 165 °C
CCCCCCCCCCCCCCOc1ccc([N+](=O)[O-])cc1OCCCCCCCCCCCCCC	64 to 66 °C
CNc1ccccc1C(=O)NCCCn1ccnc1	138 to 141 °C

Structure (SMILES)	melting point
CCC1(O)CCC2(C)C(CCC3C4CCC(C(C)=O)C4(C)CC(=O)C32)C1 (centres undefined)	129 °C
CCC1(CC)CN(C(C)(C)C)C(=O)C(CC)(CC)N1OC(=O)C(C)(C)C	58 to 60 °C
Cc1ccc(N)cc1Nc1nccc(-c2cncnc2)n1	164 to 167 °C
COCC(c1cc(C)ccc1C)S(=O)(=O)c1ccccn1 (centres undefined)	91 to 93 °C
CCCCCCCCCCCCCCN(O)CCCCCCCCCCCCCC	94 to 96 °C
COc1cc(C(C)=O)ccc1OCCCN1C2CCC1CC(c1nsc3cc(F)ccc13)C2 (centres undefined)	118 to 119 °C
CCCCN(CCCC)C(=O)/C=C/c1ccc(Cn2c(-c3ccc(F)cc3)c(C)c3cc(O)ccc32)cc1	180 °C
CCC(=O)OC(C)c1ccc(-c2ccc(C(=O)O)cc2)cc1 (single isomer, unassigned; (+))	175 to 176 °C
COc1ccc(C2(COC(C)=O)CCC(=O)CC2)cc1	86.5 to 88 °C
CCN1C(=O)C(=S2CN(CC)c3ccccc32)SC1=S (centres undefined)	246 to 248 °C
COC(=O)c1ccc(S(=O)(=O)C(Cn2ccnc2)c2ccccc2OC)cc1 (centres undefined)	150 to 151 °C
CN1Cc2nc[nH]c2C[C@@H]1C(=O)c1ccccc1	98 °C
CCOC(=O)C(=O)Nc1c(Cl)cc(Cl)c(Cl)c1O	178 °C
COC(=O)c1cc(I)cc(OC)c1O	104 °C
COC(=O)Nc1nc(C)c(C(=O)c2sc(NC(=O)OC)nc2C)s1	188 to 189 °C
CCCCCCCCOc1ccc(-c2ccc(OCC(C)OC(=O)C(C)CC)cc2)cc1 (centres undefined)	56 °C
COc1ccc2cc(Br)ccc2n1	93 to 96 °C
CC(=O)Nc1ccc(S(=O)(=O)N[C@H]2COCOC[C@H]2OC(C)=O)cc1 (relative stereo)	184 to 186 °C
OCc1csc(-c2ccccc2)c1	92 to 93 °C
N#CN=C(Oc1ccccc1)N1CCCCC1	85.7 °C
CNC(=O)Nc1nc(CC(=O)Nc2cccc(C(F)(F)F)c2)cs1	200 to 203 °C
CCC(=O)N1CCc2cc(O)c(OC)cc2C1	116 to 118 °C
Cc1cc(C)c(C(=O)P2(=O)Oc3ccccc3-c3ccccc32)c(C)c1 (centres undefined)	109 °C
O=C(O)c1cc(SCCO)ccc1O	136 °C
C=CCOc1ccccc1OCCNCC(O)COc1cccc2c1CC(=O)N2 (centres undefined)	148 to 149 °C

Structure (SMILES)	melting point
Cc1nc(NC(=O)Cc2ccsc2)c(Br)c(C)c1Br	157 °C
CNC(=O)Cc1c(F)cccc1F	163 to 164 °C
CCCCCCCCCCCCCCOc1cc(C(=O)OC)ccc1OC	77 to 79 °C
CC(C)c1ccc(-c2nc(=O)n(Cc3ccccc3)c3ccc(OCC#N)cc23)cc1	139 to 141 °C
Cn1cc(C(O)(c2ccc3c(cnn3C(=O)OC3CCC3)c2)C(F)(F)F)c2ccccc21 (centres undefined)	82 to 84 °C
CCOC(=O)c1c(-c2ccccc2)nc2ccccn12	68 °C
CC(=O)N[C@@H](C)COc1cc2oc(-c3ccc(OC[C@H]4CC4(F)F)c(F)c3)nc2cn1	181 °C
CC(NC1=NS(=O)(=O)c2ccc(Cl)cc2N1)C(C)(C)C (centres undefined)	> 220 °C
COc1ccc(Sc2ccccc2CC(=O)O)cc1	102 to 105 °C
CC(C)c1cnc(NC(=O)Nc2cccc(I)c2)s1	90 to 92 °C
COC(=O)C(O)(c1ccc(C)cc1)c1ccc(C)cc1	83 to 84 °C
O=c1[nH]c(C(F)(F)F)nc2ccc(I)cc12	> 255 °C
CCN1Cc2ccccc2P1(=O)c1ccccc1 (centres undefined)	94 to 95 °C
CC(C)(C)COC1CCC(=O)N1 (centres undefined)	45 °C
CN1CC[C@]2(c3cccc(O)c3)CC=CC[C@@H]2C1 (relative stereo)	159 °C
Cc1oc(-c2ccccc2)nc1CCC#N	63 to 64 °C
COc1cc(OC)cc(N2CCN(C(=S)Nc3cc(C(C)=O)c(C)nc3OC)CC2)c1	167 to 169 °C
COc1ccc(C2(c3ccc(OC)cc3)CCN(C[C@H]3CN(C)[C@@H]4Cc5c(Br)[nH]c6cccc(c56)[C@@]4(OC)C3)CC2)cc1	167 to 172 °C
COc1cc(O)c(C(=O)C=Cc2sccc2C)c(OC)c1	124 °C
CC(=O)OC1CSC(Oc2ccc(-c3cccnc3F)nc2Cl)C(OC(C)=O)C1OC(C)=O (centres undefined)	227 °C
N#Cc1ccc(C(=O)c2cc(C(F)(F)F)ccc2S)cc1	210 °C
CS(=O)(=O)Oc1ccc2c(c1)[nH]c(=O)c1c3ccc(OS(C)(=O)=O)cc3oc21	> 300 °C
CCC12CCC3c4ccc(OC)cc4CCC3C1CCC2(OC(C)=O)C(C)=O (centres undefined)	144 to 148 °C
O=C(Nc1ccccc1C(=O)NCCc1ncc[nH]1)c1ccc(C(F)(F)F)cc1	207 to 215 °C
Cc1ccc(C=Cc2ccccc2)cc1C	76 °C

Structure (SMILES)	melting point
Cc1ccccc1Nc1nc(Cl)nc2ccccc12	192 to 194 °C
CCc1cccc(-c2nc3ccccc3[nH]2)n1	161 to 162 °C
CON=C1CN(c2c(F)c(N)c3c(=O)c(C(=O)O)cn(C4CC4)c3c2F)CC12CN(C)C2	220 to 222 °C
Cc1ccc(F)cc1C(=O)Nc1ccc(C(=O)N2CCc3cn[nH]c3-c3sccc32)cc1	310 to 312 °C
O=C(Oc1ccc(F)cc1)c1cc(C(F)(F)F)cc(C(F)(F)F)c1	60 to 61 °C
COC(=O)C(CSC(=O)c1ccccc1)NC(=O)C(=O)NC(CSC(=O)c1ccccc1)C(=O)OC (centres undefined)	185 to 186 °C
COP(=O)(OC)C1OC(=O)c2ccccc21 (centres undefined)	95 to 96.5 °C
COc1ccc(N2C(=O)N(c3cccc(C#N)c3)c3nc(Nc4cccc(CCO)c4)ncc3C2C)cc1 (centres undefined)	195 to 200 °C
CS(=O)(=O)c1csc(CC(=O)C(=O)c2ccc(F)cc2)c1	174 to 175 °C
O=C(O)CCc1cn(Cc2ccc3cc(OCc4ccccc4F)ccc3c2)nc1-c1ccccc1	152 to 153 °C
COC(=O)c1cc(-c2nc3ccccc3s2)cc2c1OC(c1ccccc1)(c1ccccc1)O2	184 to 185 °C
CON=C(c1ccccc1OCc1ccc(C)cc1)n1ccnc1	70.5 to 72 °C
CC(Cc1n[nH]c(=O)c2ccccc12)c1cccnc1 (centres undefined)	142 °C
Cc1cc(F)cc(C)c1Cl	64 to 65 °C
Oc1ccc(C(NC(c2ccccc2)c2ccccc2)P(O)O)c(O)c1 (centres undefined)	250 °C
COc1ccc(-c2csc(Nc3ccc(C)cn3)n2)cc1	246 to 248 °C
O=C(CCCN1C(=O)c2ccccc2C1=O)N1CCCC2=C1CCc1cc(Cl)ccc12	182 to 183 °C
CCn1nc(OCC(=O)C(C)(C)C)c(-c2ccc(S(C)(=O)=O)cc2)c1-c1ccc(F)cc1	63 to 66 °C
CC(C)(C)OC(=O)N1Cc2ccc(COc3cccc4c3CN(C3CCC(=O)NC3=O)C4=O)cc2C1 (centres undefined)	178 to 180 °C
CCCCCCCCCCCCCCCC(=O)OC1CN(C)C2(C1)C1CC3CC(C1)CC2C3 (centres undefined)	50 to 53 °C
COc1cc2c(c3c1OC(C)(C)C3)C(c1cccc(C(=O)NC(C)(C)C(N)=O)c1)=NC(C)(C)C2	129 to 131 °C
O=S(=O)(Nc1ccccc1OCCCN1CCC(OC(c2ccccc2)c2ccccc2)CC1)c1ccccc1	131 to 132 °C
O=C(Nc1ccc(Sc2c(O)c3c(Cl)cc(Cl)cc3[nH]c2=O)cc1)c1ccco1	296 to 300 °C
O=C(O)C1CCCn2c(=O)n(CS)c(=O)n21 (centres undefined)	158 °C
